We go through 20 molecules from patent publication US8580842B2, “Heteroaryl-substituted 1,3-dihydroindol-2-one derivatives and medicaments containing them” (Abbott GmbH & Co. KG, priority 2003, dated 2013).

Structures can show the parent of a compound that is named as a salt.

For the experiment, the target named is T1, human V1b receptors (Homo sapiens, UniProt P47901).
T1 construct: expressed in transfected cells; host or cells: CHO-K1 (membrane preparation V1b-3H2)
T1 sequence (P47901 1-424): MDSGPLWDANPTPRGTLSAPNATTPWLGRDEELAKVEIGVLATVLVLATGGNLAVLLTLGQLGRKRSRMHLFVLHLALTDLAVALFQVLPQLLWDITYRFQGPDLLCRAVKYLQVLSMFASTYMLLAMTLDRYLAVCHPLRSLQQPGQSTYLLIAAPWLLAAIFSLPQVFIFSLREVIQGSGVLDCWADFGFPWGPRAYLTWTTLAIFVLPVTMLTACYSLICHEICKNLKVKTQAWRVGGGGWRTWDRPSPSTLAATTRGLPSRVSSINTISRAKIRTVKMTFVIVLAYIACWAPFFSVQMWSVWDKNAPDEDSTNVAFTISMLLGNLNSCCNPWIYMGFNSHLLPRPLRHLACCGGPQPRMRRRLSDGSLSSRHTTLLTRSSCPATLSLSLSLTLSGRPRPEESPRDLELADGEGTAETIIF
The experiment in a line: Vasopressin V1b receptor binding assay. As to conditions: membranes from CHO-K1 cells expressing human V1b receptors, displacement of 1.5 nM 3H-AVP; read-out: Binding affinity for the vasopressin V1b receptor. The method, then: Vasopressin V1b Receptor Binding Assay
The binding of the compounds of this invention to the vasopressin V1b receptor was determined with the following assay:
Compounds were dissolved in a concentration of 10^−2 M or 10^−3 M in DMSO. Further dilutions were performed with water.
The procedure for the binding assay was based on the method of Tahara et al. (Tahara A et al., Brit. J. Pharmacol. 125, 1463-1470 (1998)). Assays (0.250 ml) consisted of membranes (58 μg protein) from CHO-K1 cells permanently expressing human V1b receptors (preparation V1b-3H2, containing protease inhibitors, Roche complete Mini #1836170), 1.5 nM ^3H-AVP (8-Arg-vasopressin, NET 800) in incubation buffer (total binding) and different concentrations of test compound (displacement). Non-specific binding was defined with 10^−6 M AVP. Assays were performed in triplicate.
Incubation buffer: 50 mM Tris, 10 mM MgCl2, 0.1% BSA adjusted to pH 7.4 with HCl.
After incubation, 60 min at room temperature, bound and free radioligand was separated by filtration under vacuum through Whatman GF/B glass fibre mats using a Skatron cell harvester 7000.
Liquid scintillation counting was performed in beta-counters, Tricarb model 2000 or 2200CA (Packard). Dpm were calculated by a programme with standardisation using a standard quench series.
Evaluation of binding parameters was performed by non-linear regression analysis with SAS. The strategy of this program is similar to the program LIGAND described by Munson and Rodbard (Munson PJ and Rodbard D, Analytical Biochem 107, 220-239 (1980)).
For the molecule `COc1ncccc1C1(OC(=O)N2CCN(C3CCN(C)CC3)CC2)C(=O)N(S(=O)(=O)c2ccc(C(F)(F)F)cc2)c2ccc(Cl)cc21` (centres unmarked) [Example 122, 4-(1-Methyl-piperidin-4-yl)-piperazine-1-carboxylic acid 5-chloro-3-(2-methoxy-pyridin-3-yl)-2-oxo-1-(4-trifluoromethyl-benzenesulfonyl)-2,3-dihydro-1H-indol-3-yl ester diacetate], the Ki is 50 to 500 nM.
As for `COc1ncccc1C1(OC(=O)N2CCN(C3CCN(C)CC3)CC2)C(=O)N(S(=O)(=O)c2ccc(OC(F)(F)F)cc2)c2ccc(Cl)cc21` (centres unmarked) [Example 123, 4-(1-Methyl-piperidin-4-yl)-piperazine-1-carboxylic acid 5-chloro-3-(2-methoxy-pyridin-3-yl)-2-oxo-1-(4-trifluoromethoxy-benzenesulfonyl)-2,3-dihydro-1H-indol-3-yl ester diacetate], the Ki is 50 to 500 nM.
As to `CCOc1ccccc1C1(NC(=O)N2CCN(C3CCN(C)CC3)CC2)C(=O)N(S(=O)(=O)c2sccc2OC)c2ccc(OC)cc21` (centres unmarked) [Example 125, 4-(1-Methyl-piperidin-4-yl)-piperazine-1-carboxylic acid [3-(2-ethoxy-phenyl)-5-methoxy-1-(3-methoxy-thiophene-2-sulfonyl)-2-oxo-2,3-dihydro-1H-indol-3-yl]-amide], the Ki is below 50 nM.
Turning to `COc1ccc2c(c1)C(OC(=O)N1CCN(C3CCN(C)CC3)CC1)(c1ccccc1OC)C(=O)N2S(=O)(=O)c1cccs1` (centres unmarked) [Example 126, 4-(1-Methyl-piperidin-4-yl)-piperazine-1-carboxylic acid 5-methoxy-3-(2-methoxy-phenyl)-2-oxo-1-(thiophene-2-sulfonyl)-2,3-dihydro-1H-indol-3-yl ester dihydrochloride], the Ki was below 50 nM.
Then `COc1ccccc1C1(OC(=O)N2CCN(C3CCN(C)CC3)CC2)C(=O)N(S(=O)(=O)c2ccccn2)c2ccc(C)cc21` (centres unmarked) [Example 127, 4-(1-Methyl-piperidin-4-yl)-piperazine-1-carboxylic acid 3-(2-methoxy-phenyl)-5-methyl-2-oxo-1-(pyridine-2-sulfonyl)-2,3-dihydro-1H-indol-3-yl ester dihydrochloride], with below 50 nM; and `COc1ccccc1C1(OC(=O)N2CCC(N3CCN(C)CC3)CC2)C(=O)N(S(=O)(=O)c2cccs2)c2ccc(C)cc21` (centres unmarked) [Example 130, 4-(4-Methyl-piperazin-1-yl)-piperidine-1-carboxylic acid 3-(2-methoxy-phenyl)-5-methyl-2-oxo-1-(thiophene-2-sulfonyl)-2,3-dihydro-1H-indol-3-yl ester dihydrochloride], with below 50 nM; and `Cc1ccccc1C1(OC(=O)N2CCN(C3CCN(C)CC3)CC2)C(=O)N(S(=O)(=O)c2ccccn2)c2ccc(C#N)cc21` (centres unmarked) [Example 134, 4-(1-Methyl-piperidin-4-yl)-piperazine-1-carboxylic acid 5-cyano-2-oxo-1-(pyridine-2-sulfonyl)-3-o-tolyl-2,3-dihydro-1H-indol-3-yl ester dihydrochloride], with below 50 nM.
`COc1ccccc1C1(OC(=O)N2CCN(C3CCN(C)CC3)CC2)C(=O)N(S(=O)(=O)c2cccs2)c2ccc(F)cc21` (centres unmarked) [Example 136, 4-(1-Methyl-piperidin-4-yl)-piperazine-1-carboxylic acid 5-fluoro-3-(2-methoxy-phenyl)-2-oxo-1-(thiophene-2-sulfonyl)-2,3-dihydro-1H-indol-3-yl ester]: the Ki is below 50 nM.
For `CCOc1ccccc1C1(OC(=O)N2CCN(C3CCN(C)CC3)CC2)C(=O)N(S(=O)(=O)c2sccc2OC)c2ccc(Cl)cc21` (centres unmarked) [Example 143, 4-(1-Methyl-piperidin-4-yl)-piperazine-1-carboxylic acid 5-chloro-3-(2-ethoxy-phenyl)-1-(3-methoxy-thiophene-2-sulfonyl)-2-oxo-2,3-dihydro-1H-indol-3-yl ester], the Ki was below 50 nM.
For the molecule `CCOc1ccccc1C1(OC(=O)N2CCN(C3CCN(C)CC3)CC2)C(=O)N(S(=O)(=O)c2ccc(C)cn2)c2ccc(Cl)cc21` (centres unmarked) [Example 145, 4-(1-Methyl-piperidin-4-yl)-piperazine-1-carboxylic acid 5-chloro-3-(2-ethoxy-phenyl)-1-(5-methyl-pyridine-2-sulfonyl)-2-oxo-2,3-dihydro-1H-indol-3-yl ester], the Ki was below 50 nM.
Then `CCOc1ccccc1C1(OC(=O)N2CCN(C3CCN(C)CC3)CC2)C(=O)N(S(=O)(=O)c2cccc3cccnc23)c2ccc(OC)cc21` (centres unmarked) [Example 154, 4-(1-Methyl-piperidin-4-yl)-piperazine-1-carboxylic acid 3-(2-ethoxy-phenyl)-5-methoxy-2-oxo-1-(quinoline-8-sulfonyl)-2,3-dihydro-1H-indol-3-yl ester], with below 50 nM.
Turning to `CCOc1ccccc1C1(OC(=O)N2CCN(C3CCN(C)CC3)CC2)C(=O)N(S(=O)(=O)c2cccc3cccnc23)c2ccc(C#N)cc21` (centres unmarked) [Example 158, 4-(1-Methyl-piperidin-4-yl)-piperazine-1-carboxylic acid 5-cyano-3-(2-ethoxy-phenyl)-2-oxo-1-(quinoline-8-sulfonyl)-2,3-dihydro-1H-indol-3-yl ester], the Ki is below 50 nM.
For the molecule `COc1ncccc1C1(OC(=O)N2CCN(C3CCN(C)CC3)CC2)C(=O)N(S(=O)(=O)c2cn(C)cn2)c2ccc(Cl)cc21` (centres unmarked) [Example 165, 4-(1-Methyl-piperidin-4-yl)-piperazine-1-carboxylic acid 5-chloro-3-(2-methoxy-pyridin-3-yl)-1-(1-methyl-1H-imidazole-4-sulfonyl)-2-oxo-2,3-dihydro-1H-indol-3-yl ester diacetate], the Ki was in the range of 50 to 500 nM.
In the case of `COc1ncccc1C1(OC(=O)N2CCN(C3CCN(C)CC3)CC2)C(=O)N(S(=O)(=O)c2cn(C)c(C)n2)c2ccc(Cl)cc21` (centres unmarked) [Example 166, 4-(1-Methyl-piperidin-4-yl)-piperazine-1-carboxylic acid 5-chloro-1-(1,2-dimethyl-1H-imidazole-4-sulfonyl)-3-(2-methoxy-pyridin-3-yl)-2-oxo-2,3-dihydro-1H-indol-3-yl ester diacetate], the Ki lay in the range of 50 to 500 nM.
As for `COc1ncccc1C1(OC(=O)N2CCN(C3CCN(C)CC3)CC2)C(=O)N(S(=O)(=O)c2ccc(C)s2)c2ccc(Cl)cc21` (centres unmarked) [Example 168, 4-(1-Methyl-piperidin-4-yl)-piperazine-1-carboxylic acid 5-chloro-3-(2-methoxy-pyridin-3-yl)-1-(5-methyl-thiophene-2-sulfonyl)-2-oxo-2,3-dihydro-1H-indol-3-yl ester diacetate], the Ki was below 50 nM.
With `COc1ncccc1C1(OC(=O)N2CCN(C3CCN(C)CC3)CC2)C(=O)N(S(=O)(=O)c2cc(C)sc2C)c2ccc(Cl)cc21` (centres unmarked) [Example 169, 4-(1-Methyl-piperidin-4-yl)-piperazine-1-carboxylic acid 5-chloro-1-(2,5-dimethyl-thiophene-3-sulfonyl)-3-(2-methoxy-pyridin-3-yl)-2-oxo-2,3-dihydro-1H-indol-3-yl ester diacetate] the figure was 50 to 500 nM; with `COc1ncccc1C1(OC(=O)N2CCN(C3CCN(C)CC3)CC2)C(=O)N(S(=O)(=O)c2csc3ccccc23)c2ccc(Cl)cc21` (centres unmarked) [Example 170, 4-(1-Methyl-piperidin-4-yl)-piperazine-1-carboxylic acid 1-(benzo[b]thiophene-3-sulfonyl)-5-chloro-3-(2-methoxy-pyridin-3-yl)-2-oxo-2,3-dihydro-1H-indol-3-yl ester diacetate], 50 to 500 nM; with `COc1ncccc1C1(OC(=O)N2CCN(C3CCN(C)CC3)CC2)C(=O)N(S(=O)(=O)c2ccsc2)c2ccc(Cl)cc21` (centres unmarked) [Example 171, 4-(1-Methyl-piperidin-4-yl)-piperazine-1-carboxylic acid 5-chloro-3-(2-methoxy-pyridin-3-yl)-2-oxo-1-(thiophene-3-sulfonyl)-2,3-dihydro-1H-indol-3-yl ester diacetate], below 50 nM.
On to `COc1ncccc1C1(OC(=O)N2CCN(C3CCN(C)CC3)CC2)C(=O)N(S(=O)(=O)c2cc3ccccc3s2)c2ccc(Cl)cc21` (centres unmarked) [Example 172, 4-(1-Methyl-piperidin-4-yl)-piperazine-1-carboxylic acid 1-(benzo[b]thiophene-2-sulfonyl)-5-chloro-3-(2-methoxy-pyridin-3-yl)-2-oxo-2,3-dihydro-1H-indol-3-yl ester diacetate], for which the Ki is 50 to 500 nM.
As to `COc1ccc(S(=O)(=O)N2C(=O)C(c3cccnc3OC)(N(C)[C@@H](C)C(=O)N(C)C)c3cc(Cl)ccc32)c(OC)c1` (some centres unmarked) [Example 220], the Ki is below 50 nM.
